Results: patent publication US10927221B2, “Dendrimeric metallacrowns” (THE REGENTS OF THE UNIVERSITY OF MICHIGAN, priority 2018, dated 2021)

Legend:
Luminescence lifetimes = type: physicochemical
Source text: (§1) Quantitative parameters, i.e. absolute quantum yields under excitation at 320 nm to 340 nm and luminescence lifetimes, have been determined for the Ga8Yb2(Shi)8(MIP)4 metallacrown and Ga8Ln2 G:−0.5 polyamidoamine MC-cored dendrimers (Ln=Yb, Tb, Sm) (Table 1).
(§2) In Table 1, luminescence lifetimes (λex=355 nm) and quantum yields (λex=340 nm for samples in the solid state and λex=320 for solutions) of the Ga8Yb2(Shi)8(MIP)4 dimeric metallacrown, Ga8Ln2 G:−0.5 polyamidoamine MC-cored dendrimers (Ln=Yb, Tb, Sm) (i.e., Ga8Ln2(Shi)8(MIP)4(G:−0.5 PAMAM)4) and Ga8Yb2 G:0.5 polyamidoamine MC-cored dendrimers at room temperature (2σ values are given between parentheses) are presented. For bi-exponetial luminescence lifetimes results, values after the colon indicate the fraction contribution of the individual lifetimes to the experimental luminescence decay.
(§3) Quantitative parameters, i.e. absolute quantum yields under excitation at 350 nm (for samples in the solid state) or 325 nm (for samples in solution) and luminescence lifetimes (under excitation at 355 nm), have been determined for each of the Ga8Y2(shi)8(mip)4 G:0 polyamidoamine MC-cored dendrimer, the Ga8Y2(shi)8(mip)4 G:0 AA-capped polyamidoamine MC-cored dendrimer, and the Ga8Y2(shi)8(mip)4 G:0.5 polyamidoamine MC-cored dendrimer at room temperature. In Table 2, the 2σ values are given between parentheses. For bi-exponetial luminescence lifetimes results, values after the colon indicate the fraction contribution of the individual lifetimes to the experimental luminescence decay.

Absolute quantum yields [1] = type: physicochemical
Source text: as §1, §2, §3

HeLa cells = assay: Epifluorescence imaging with HeLa cells; type: cell-based; conditions: 3 hours, λex 377 nm band pass 50 nm
Description: FIG. 21 depicts epifluorescence microscopy images (reproduced in black and white) obtained on HeLa cells, (Top) after incubation with a 30 μM solution of Ga8Tb2(shi)8(MIP)4 G:−0.5 polyamidoamine MC-cored dendrimer for 3 hours (λex: 377 nm, band pass 50 nm; λem: 536 nm, band pass 40 nm, 1 s of exposure) and (Bottom) untreated (control) cells. A: brightfield, B: visible emission, and C: merged image (Objective 63×);
FIG. 22 depicts epifluorescence microscopy images (reproduced in black and white) obtained on HeLa cells, (Top) after incubation with a 100 μM solution of the Ga8Yb2(shi)8(MIP)4 G:−0.5 polyamidoamine MC-cored dendrimer for 3 hours (λex: 377 nm, band pass 50 nm; λem: long pass 805 nm, 40 s of exposure), and (Bottom) untreated (control) cells. A: brightfield, B: visible emission, and C: merged image (Objective 63×);
To test if synthesized MC-cored dendrimers could be used under biological conditions and maintain the luminescence signal, HeLa cells were incubated with the Tb(III) and Yb(III) G:−0.5 polyamidoamine MC-cored dendrimers (Ga8Tb2 G:−0.5 polyamidoamine MC-cored dendrimers and Ga8Yb2 G:−0.5 polyamidoamine MC-cored dendrimers). The metallacrown complexes coated the surfaces of the cells. For a control, HeLa cells were not incubated and were imaged in a similar manner. […]

Absolute quantum yields [2] = type: physicochemical; conditions: aqueous solution
[3] = Solution state (UV-Vis) absorbance; type: physicochemical; conditions: approximately 2 μM to 3 μM methanol solutions; room temperature
Description: The solution state (UV-Vis) absorbance of the Sm-shi8 and the Sm-e8, Sm-m4, Smbt8 and Sm-te4 analogs was measured in approximately 2 μM to 3 μM methanol solutions at room temperature. The absorbance spectrum for each analog shown in FIG. 29 has a π-π* transition band with λmax of approximately 315 nm (31,750 cm^−1) or 335 nm (29,850 cm^−1). This π-π* transition was red-shifted by close to 25 nm from Sm-shi8 in the case of Sm-e8 and Sm-bt8.

[4] = 200 μM H2O/DMSO (4%), λex=355 nm, room temperature (Table 1)
[5] = Solid, λex=355 nm, room temperature, 2σ in parentheses (Table 1)
[6] = 200 μM H2O/DMSO (4%), λex=320 nm, room temperature (Table 1)
[7] = Solid, λex=340 nm, room temperature (Table 1)
[8] = 200 μM H2O/DMSO (4%), λex=355 nm, room temperature (Table 1), longer lifetime component
[9] = 200 μM H2O/DMSO (4%), λex=355 nm, room temperature (Table 1), shorter lifetime component
[10] = H2O/DMSO (96/4), 1 mg/mL, excitation at 355 nm, room temperature (Table 2)
[11] = Solid, excitation at 355 nm, room temperature (Table 2)
[12] = H2O/DMSO (96/4), 1 mg/mL, excitation at 325 nm, room temperature (Table 2)
[13] = Solid, excitation at 350 nm, room temperature (Table 2)

Ga8Sm2(shi)8(MIP)4G:−0.5 PAMAM metallacrown (MC)-cored dendrimer [Ga8Sm2 Gen: −0.5]
Lifetime (Luminescence lifetimes; [4]): 96.2(9) μs | Lifetime (Luminescence lifetimes; [5]): 112(1) μs | Quantum yield (Absolute quantum yields [1]; [6]): 1.1(1) % | Quantum yield (Absolute quantum yields [1]; [7]): 2.31(2) %

Ga8Tb2(shi)8(MIP)4 G:−0.5 polyamidoamine MC-cored dendrimer [Ga8Tb2 Gen: −0.5]
fraction contribution of the individual lifetime to the experimental luminescence decay (Luminescence lifetimes; [8]): 89.7(8) % | fraction contribution of the individual lifetime to the experimental luminescence decay (Luminescence lifetimes; [9]): 10.3(8) % | Quantum yield (Absolute quantum yields [1]; [6]): 6.1(3) % | Quantum yield (Absolute quantum yields [1]; [7]): 11.9(3) % | luminescence signal on epifluorescence microscope, visible range (HeLa cells; 30 μM, 536 nm emission, 40 nm filter, 1 s exposure): good quality signals were observed in the visible range

Ga8Yb2(Shi)8(MIP)4
fraction contribution of the individual lifetime to the experimental luminescence decay (Luminescence lifetimes; [8]): 97.5(3) % | fraction contribution of the individual lifetime to the experimental luminescence decay (Luminescence lifetimes; [9]): 2.5(3) % | Quantum yield (Absolute quantum yields [1]; [6]): 9.01(7) · 10^−2% | Quantum yield (Absolute quantum yields [1]; [7]): 0.126(3) %

Ga8Yb2(shi)8(MIP)4 G:0 polyamidoamine MC-cored dendrimer [Ga8Yb2 G:0]
Lifetime (Luminescence lifetimes; [10]): 9.93(8) μs | Lifetime (Luminescence lifetimes; [11]): 36.3(1) μs | Quantum yield (Absolute quantum yields [1]; [12]): 0.53(1) % | Quantum yield (Absolute quantum yields [1]; [13]): 2.40(2) %

Ga8Yb2(shi)8(MIP)4 G:0.5 polyamidoamine MC-cored dendrimer [Ga8Yb2 Gen: 0.5]
Lifetime (Luminescence lifetimes; [10]): 11.1(1) μs | Lifetime (Luminescence lifetimes; [11]): 46.3(1) μs | Lifetime (Luminescence lifetimes; [5]): 28.2(3) μs | Quantum yield (Absolute quantum yields [1]; [12]): 0.63(1) % | Quantum yield (Absolute quantum yields [1]; [13]): 2.83(9) % | Quantum yield (Absolute quantum yields [1]; [7]): 1.82(1) %

Ga8Yb2(shi)8(MIP)4 G:−0.5 polyamidoamine MC-cored dendrimer [Ga8Yb2 Gen: −0.5]
Lifetime (Luminescence lifetimes; [4]): 13.(1) μs | Lifetime (Luminescence lifetimes; [5]): 35.3(6) μs | Quantum yield (Absolute quantum yields [1]; [6]): 0.868(9) % | Quantum yield (Absolute quantum yields [1]; 200 μM H2O/DMSO (4%), λex=320 nm, room temperature (Table 1), listed as Ga8Yb2 G:−0.5 polyamidoamine MC-cored dendrimer): 0.868% | Quantum yield (Absolute quantum yields [1]; [7]): 3.24(9) % | luminescence signal on epifluorescence microscope, NIR range (HeLa cells; 100 μM, >805 nm emission, 40 s exposure): good quality signals were observed in the NIR range | improvement of quantum yield compared to YnZn16 MCs assembled with pyrazinehydroxamic acid (Absolute quantum yields [2]): > 77 times

Sm2Ga8(eshi)8(ip)4 [Sm-e8]
red-shift of π-π* transition band from Sm-shi8 [3]: ~25 nm

Sm2Ga8(shi)8(miph)4 [Sm-m4]
red-shift of π-π* transition band from Sm-shi8 [3]: no notable redshift
